We go through 27 compounds from US10351575B2, “Bicyclic urea, thiourea, guanidine and cyanoguanidine compounds useful for the treatment of pain” (Array BioPharma Inc., priority 2012, dated 2019).

Counter-ions that a name gives are not always drawn.

The target of the assay is His-tagged recombinant human TrkA (Homo sapiens (Human), UniProt P04629). In words: TrkA LanthaScreen Eu Kinase Binding Assay. To be noted: averaged IC50; TR-FRET binding, 60 min, 22° C.; read-out: TrkA Enzyme IC50. In outline: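 TR-FRET binding: 5 nM His-tagged human TrkA cytoplasmic domain with 4 nM Alexa-Fluor Tracer 236, 2 nM biotin anti-His and 2 nM Eu-streptavidin. Buffer was 25 mM MOPS pH 7.5, 5 mM MgCl2, 0.005% Triton X-100, 2% DMSO, 60 min at 22° C. IC50 from a four-parameter fit of ratiometric percent of control.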
Chain of His-tagged recombinant human TrkA (P04629 440-796): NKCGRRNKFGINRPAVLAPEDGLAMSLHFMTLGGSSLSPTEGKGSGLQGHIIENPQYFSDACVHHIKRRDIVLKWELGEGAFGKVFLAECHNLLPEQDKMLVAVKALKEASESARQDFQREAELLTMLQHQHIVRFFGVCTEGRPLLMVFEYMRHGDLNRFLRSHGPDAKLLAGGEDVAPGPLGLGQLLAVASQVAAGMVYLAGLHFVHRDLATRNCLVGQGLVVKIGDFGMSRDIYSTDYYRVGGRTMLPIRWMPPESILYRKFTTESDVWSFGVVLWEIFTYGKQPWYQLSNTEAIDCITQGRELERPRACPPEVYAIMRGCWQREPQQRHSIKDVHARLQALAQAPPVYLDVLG
Take `Cc1c(-c2cnn(C)c2)nn(-c2ccccc2)c1NC(=O)NC1CSCc2ccc(Br)cc21` (stereo not drawn) [Example 114, 1-(6-bromoisothiochroman-4-yl)-3-(1′,4-dimethyl-1-phenyl-1H,1′H-[3,4′-bipyrazol]-5-yl)urea]: the IC50 was under 0.1 µM.
On to `Cc1c(-c2cnn(C)c2)nn(-c2ccccc2)c1NC(=O)NC1CS(=O)(=O)Cc2ccc(Br)cc21` (stereo not drawn) [Example 115, 1-(6-bromo-2,2-dioxidoisothiochroman-4-yl)-3-(1′,4-dimethyl-1-phenyl-1H,1′H-[3,4′-bipyrazol]-5-yl)urea], for which the IC50 was under 0.1 µM.
Turning to `Cc1c(-c2cnn(C)c2)nn(-c2ccccc2)c1NC(=O)NC1CN(CC(F)(F)F)C(=O)c2ccccc21` (stereo not drawn) [Example 116, 1-(1′,4-dimethyl-1-phenyl-1H,1′H-[3,4′-bipyrazol]-5-yl)-3-(1-oxo-2-(2,2,2-trifluoroethyl)-1,2,3,4-tetrahydroisoquinolin-4-yl)urea], the 50% inhibitory concentration (IC50) was under 0.1 µM.
Consider `Cc1ncc(-c2nn(-c3ccccc3)c(NC(=O)N[C@@H]3c4ccccc4C(C)(C)C[C@H]3O)c2C)cn1` [Example 117, 1-((1,2-trans)-2-hydroxy-4,4-dimethyl-1,2,3,4-tetrahydronaphthalen-1-yl)-3-(4-methyl-3-(2-methylpyrimidin-5-yl)-1-phenyl-1H-pyrazol-5-yl)urea], for which the IC50 is under 0.1 µM.
As to `CNC(=O)c1nn(-c2ccccc2)c(NC(=O)NC2CN(CC(F)(F)F)C(C)c3ccc(COC)cc32)c1C` (stereo not drawn) [Example 129, 5-(3-(6-(methoxymethyl)-1-methyl-2-(2,2,2-trifluoroethyl)-1,2,3,4-tetrahydroisoquinolin-4-yl)ureido)-N,4-dimethyl-1-phenyl-1H-pyrazole-3-carboxamide], the IC50 is under 0.1 µM.
In the case of `Cc1ncc(-c2nn(-c3ccccc3)c(NC(=O)NC3CN(CC(F)(F)F)C(=O)c4ccccc43)c2C)cn1` (stereo not drawn) [Example 130, 1-(4-methyl-3-(2-methylpyrimidin-5-yl)-1-phenyl-1H-pyrazol-5-yl)-3-(1-oxo-2-(2,2,2-trifluoroethyl)-1,2,3,4-tetrahydroisoquinolin-4-yl)urea], the IC50 was under 0.1 µM.
With `Cc1nn(-c2ccccc2)c(NC(=O)NC2CN(CC(F)(F)F)C(=O)c3ccccc32)c1C` (stereo not drawn) [Example 131, 1-(3,4-dimethyl-1-phenyl-1H-pyrazol-5-yl)-3-(1-oxo-2-(2,2,2-trifluoroethyl)-1,2,3,4-tetrahydroisoquinolin-4-yl)urea], the IC50 is under 0.1 µM.
The same measure for `Cc1c(OC2CN3CCC2CC3)nn(-c2ccccc2)c1NC(=O)N[C@@H]1c2ccccc2C(C)(C)C[C@H]1O` (stereo partly drawn) [Example 132, 1-((1R,2R)-2-hydroxy-4,4-dimethyl-1,2,3,4-tetrahydronaphthalen-1-yl)-3-(4-methyl-1-phenyl-3-(quinuclidin-3-yloxy)-1H-pyrazol-5-yl)urea]: under 0.1 µM; for `Cc1c(OCCN2CCOCC2)nn(-c2ccccc2)c1NC(=O)N[C@@H]1c2ccccc2C(C)(C)C[C@H]1O` [Example 133, 1-((1R,2R)-2-hydroxy-4,4-dimethyl-1,2,3,4-tetrahydronaphthalen-1-yl)-3-(4-methyl-3-(2-morpholinoethoxy)-1-phenyl-1H-pyrazol-5-yl)urea]: under 0.1 µM.
For `Cc1c(OCCN(C)C)nn(-c2ccccc2)c1NC(=O)N[C@@H]1c2ccccc2C(C)(C)C[C@H]1O` [Example 134, 1-(3-(2-(dimethylamino)ethoxy)-4-methyl-1-phenyl-1H-pyrazol-5-yl)-3-((1R,2R)-2-hydroxy-4,4-dimethyl-1,2,3,4-tetrahydronaphthalen-1-yl)urea], the IC50 was under 0.1 µM.
For the compound `COc1nn(-c2ccccc2)c(NC(=O)N[C@@H]2c3ccccc3CC[C@@H]2O)c1C` [Example 135, 1-((1R,2S)-2-hydroxy-1,2,3,4-tetrahydronaphthalen-1-yl)-3-(3-methoxy-4-methyl-1-phenyl-1H-pyrazol-5-yl)urea], the concentration for half-maximal inhibition (IC50) was 1 to 3 µM.
`Cc1c(-c2cnn(C)c2)nn(-c2ccccc2)c1NC(=O)NC1CN(CC(F)(F)F)C2(CC2)c2ccccc21` (stereo not drawn) [Example 136, 1-(1′,4-dimethyl-1-phenyl-1H,1′H-[3,4′-bipyrazol]-5-yl)-3-(2′-(2,2,2-trifluoroethyl)-3′,4′-dihydro-2′H-spiro[cyclopropane-1,1′-isoquinolin]-4′-yl)urea trifluoroacetate]: the IC50 is under 0.1 µM.
The same measure for `Cc1c(-c2cnn(C)c2)nn(-c2ccccc2)c1NC(=O)N[C@@H]1c2ccccc2C2(CC2)[C@H]1O` [Example 137, 1-(1′,4-dimethyl-1-phenyl-1H,1′H-[3,4′-bipyrazol]-5-yl)-3-((2′R,3′R)-2′-hydroxy-2′,3′-dihydrospiro[cyclopropane-1,1′-inden]-3′-yl)urea]: under 0.1 µM.
Consider `O=C(Nc1c(Cl)c(OC[C@H]2CNCCO2)nn1-c1ccccc1)N[C@@H]1c2ccccc2C2(CC2)[C@H]1O` [Example 140, 1-(4-chloro-3-((R)-morpholin-2-ylmethoxy)-1-phenyl-1H-pyrazol-5-yl)-3-((2′R,3′R)-2′-hydroxy-2′,3′-dihydrospiro[cyclopropane-1,1′-inden]-3′-yl)urea], for which the IC50 was under 0.1 µM.
The same measure for `CN1CCO[C@@H](COc2nn(-c3ccccc3)c(NC(=O)N[C@@H]3c4ccccc4C4(CC4)[C@H]3O)c2Cl)C1` [Example 141, 1-(4-chloro-3-(((R)-4-methylmorpholin-2-yl)methoxy)-1-phenyl-1H-pyrazol-5-yl)-3-((2′R,3′R)-2′-hydroxy-2′,3′-dihydrospiro[cyclopropane-1,1′-inden]-3′-yl)urea]: under 0.1 µM; for `Cc1c(OC[C@H]2CN(C(=O)OC(C)(C)C)CCO2)nn(-c2ccccc2)c1NC(=O)N[C@@H]1c2ccccc2C(C)(C)C[C@H]1O` [Example 143, (R)-tert-butyl 2-(((5-(3-(trans-2-hydroxy-4,4-dimethyl-1,2,3,4-tetrahydronaphthalen-1-yl)ureido)-4-methyl-1-phenyl-1H-pyrazol-3-yl)oxy)methyl)morpholine-4-carboxylate]: under 0.1 µM.
In the case of `COc1nn(-c2ccccc2)c(NC(=O)N[C@@H]2c3ccccc3C(C)(C)C[C@H]2O)c1C` [Example 144, 1-((1R,2R)-2-hydroxy-4,4-dimethyl-1,2,3,4-tetrahydronaphthalen-1-yl)-3-(3-methoxy-4-methyl-1-phenyl-1H-pyrazol-5-yl)urea], the IC50 was under 0.1 µM.
As for `Cn1nc(-c2ccccc2)cc1NC(=O)N[C@@H]1c2ccccc2C(C)(C)C[C@H]1O` [Example 145, 1-((1R,2R)-2-hydroxy-4,4-dimethyl-1,2,3,4-tetrahydronaphthalen-1-yl)-3-(1-methyl-3-phenyl-1H-pyrazol-5-yl)urea], the figure is 0.1 to 1 µM.
The same measure for `CCOc1nn(-c2ccccc2)c(NC(=O)N[C@@H]2c3ccccc3C(C)(C)C[C@H]2O)c1C` [Example 146, 1-(3-ethoxy-4-methyl-1-phenyl-1H-pyrazol-5-yl)-3-((1R,2R)-2-hydroxy-4,4-dimethyl-1,2,3,4-tetrahydronaphthalen-1-yl)urea]: under 0.1 µM; for `COCCOc1nn(-c2ccccc2)c(NC(=O)N[C@@H]2c3ccccc3C(C)(C)C[C@H]2O)c1C` [Example 147, 1-((1R,2R)-2-hydroxy-4,4-dimethyl-1,2,3,4-tetrahydronaphthalen-1-yl)-3-(3-(2-methoxyethoxy)-4-methyl-1-phenyl-1H-pyrazol-5-yl)urea]: under 0.1 µM; for `Cc1c(CCO)nn(-c2ccccc2)c1NC(=O)N[C@@H]1c2ccccc2C(C)(C)C[C@H]1O` [Example 148, 1-((1R,2R)-2-hydroxy-4,4-dimethyl-1,2,3,4-tetrahydronaphthalen-1-yl)-3-(3-(2-hydroxyethyl)-4-methyl-1-phenyl-1H-pyrazol-5-yl)urea]: under 0.1 µM.
With `Cc1c(OCCO)nn(-c2ccccc2)c1NC(=O)N[C@@H]1c2ccccc2C(C)(C)C[C@H]1O` [Example 149, 1-((1R,2R)-2-hydroxy-4,4-dimethyl-1,2,3,4-tetrahydronaphthalen-1-yl)-3-(3-(2-hydroxyethoxy)-4-methyl-1-phenyl-1H-pyrazol-5-yl)urea], the IC50 is under 0.1 µM.
The same measure for `Cc1c(OC[C@H]2CNCCO2)nn(-c2ccccc2)c1NC(=O)N[C@@H]1c2ccccc2C(C)(C)C[C@H]1O` [Example 150, 1-((1R,2R)-2-hydroxy-4,4-dimethyl-1,2,3,4-tetrahydronaphthalen-1-yl)-3-(4-methyl-3-((R)-morpholin-2-ylmethoxy)-1-phenyl-1H-pyrazol-5-yl)urea]: under 0.1 µM; for `Cc1c(OC[C@H]2CN(C(C)C)CCO2)nn(-c2ccccc2)c1NC(=O)N[C@@H]1c2ccccc2C(C)(C)C[C@H]1O` [Example 151, 1-((1R,2R)-2-hydroxy-4,4-dimethyl-1,2,3,4-tetrahydronaphthalen-1-yl)-3-(3-(((R)-4-isopropylmorpholin-2-yl)methoxy)-4-methyl-1-phenyl-1H-pyrazol-5-yl)urea]: under 0.1 µM.
As for `COc1nn(-c2ccccc2)c(NC(=O)N[C@@H]2c3ccccc3C(C)(C)[C@@H](OC)[C@H]2O)c1C` [Example 153, 1-((r-1,t-2,t-3)-2-hydroxy-3-methoxy-4,4-dimethyl 1,2,3,4-tetrahydronaphthalen-1-yl)-3-(3-methoxy-4-methyl-1-phenyl-1H-pyrazol-5-yl)urea], the figure is under 0.1 µM; as for `CO[C@H]1[C@@H](O)[C@H](NC(=O)Nc2c(C)c(-c3ccc(=O)n(C)c3)nn2-c2ccccc2)c2ccccc2C1(C)C` [Example 154, 1-((r-1,t-2,t-3)-2-hydroxy-3-methoxy-4,4-dimethyl-1,2,3,4-tetrahydronaphthalen-1-yl)-3-(4-methyl-3-(1-methyl-6-oxo-1,6-dihydropyridin-3-yl)-1-phenyl-1H-pyrazol-5-yl)urea], under 0.1 µM; as for `CO[C@H]1[C@@H](O)[C@H](NC(=O)Nc2c(C)c(-c3cnc(C)nc3)nn2-c2ccccc2)c2ccccc2C1(C)C` [Example 155, 1-((r-1,t-2,t-3)-2-hydroxy-3-methoxy-4,4-dimethyl-1,2,3,4-tetrahydronaphthalen-1-yl)-3-(4-methyl-3-(2-methylpyrimidin-5-yl)-1-phenyl-1H-pyrazol-5-yl)urea], under 0.1 µM.
